Molecular target: CK2A1 (CK2α/β) (Homo sapiens, UniProt P68400)
Assay: CK2 kinase assay, CK2A1 (CK2α/β)
Format: biochemical
Settings: Table A; read-out: CK2A1 (CK2α/β) (IC50)

Chain of CK2A1 (CK2α/β) (P68400 whole entry, species assumed): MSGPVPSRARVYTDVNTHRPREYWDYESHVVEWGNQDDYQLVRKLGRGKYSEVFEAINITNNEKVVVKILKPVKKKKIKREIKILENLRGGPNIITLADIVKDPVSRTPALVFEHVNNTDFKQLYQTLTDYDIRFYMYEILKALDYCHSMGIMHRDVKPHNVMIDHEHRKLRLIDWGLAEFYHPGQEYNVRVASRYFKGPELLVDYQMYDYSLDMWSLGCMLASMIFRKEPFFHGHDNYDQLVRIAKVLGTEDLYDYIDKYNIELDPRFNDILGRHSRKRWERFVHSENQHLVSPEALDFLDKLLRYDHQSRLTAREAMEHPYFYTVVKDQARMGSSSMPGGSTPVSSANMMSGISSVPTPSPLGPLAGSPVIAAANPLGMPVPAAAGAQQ
Chain of CK2A1 (CK2α/β) (P67870 whole entry partner, species assumed): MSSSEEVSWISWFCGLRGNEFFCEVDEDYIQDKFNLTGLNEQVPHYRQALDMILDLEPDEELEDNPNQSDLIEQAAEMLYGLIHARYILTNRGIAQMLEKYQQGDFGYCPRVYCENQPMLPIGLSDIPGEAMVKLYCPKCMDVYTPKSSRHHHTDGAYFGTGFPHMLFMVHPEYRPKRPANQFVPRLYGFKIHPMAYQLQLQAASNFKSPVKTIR

C=C(C)/C=C/CN1CCN(c2cc(C#N)cc(Nc3nc(NC4CC4)c4ncc(C#N)n4n3)c2Cl)CC1 [Example 530, (E)-2-((2-chloro-5-cyano-3-(4-(4-methylpenta-2,4-dien-1-yl)piperazin-1-yl)phenyl)amino)-4-(cyclopropylamino)imidazo[2,1-f][1,2,4]triazine-7-carbonitrile]
IC50: 6.24 nM

N#Cc1cc(Nc2nc(NC3CC3)c3ncc(C#N)n3n2)c(Cl)c(N2CCN(CC3CCCO3)CC2)c1 (centres unmarked) [Example 531, 2-((2-chloro-5-cyano-3-(4-((tetrahydrofuran-2-yl)methyl)piperazin-1-yl)phenyl)amino)-4-(cyclopropylamino)imidazo[2,1-f][1,2,4]triazine-7-carbonitrile]
IC50: 0.44 nM

N#Cc1cc(Nc2nc(NC3CC3)c3ncc(C#N)n3n2)c(Cl)c(N2CCN(CC3COCCO3)CC2)c1 (centres unmarked) [Example 532, 2-((3-(4-((1,4-dioxan-2-yl)methyl)piperazin-1-yl)-2-chloro-5-cyanophenyl)amino)-4-(cyclopropylamino)imidazo[2,1-f][1,2,4]triazine-7-carbonitrile]
IC50: 0.85 nM

N#Cc1cc(Nc2nc(NC3CC3)c3ncc(C#N)n3n2)c(Cl)c(N2CCN(C(=O)OCC3(CO)COC3)CC2)c1 [Example 533, (3-(hydroxymethyl)oxetan-3-yl)methyl 4-(2-chloro-5-cyano-3-((7-cyano-4-(cyclopropylamino)imidazo[2,1-f][1,2,4]triazin-2-yl)amino)phenyl)piperazine-1-carboxylate]
IC50: 0.43 nM

N#Cc1cc(Nc2nc(NC3CC3)c3ncc(C#N)n3n2)c(Cl)c(N2CCN(C(=O)OCC3CCCO3)CC2)c1 (centres unmarked) [Example 534, (tetrahydrofuran-2-yl)methyl 4-(2-chloro-5-cyano-3-((7-cyano-4-(cyclopropylamino)imidazo[2,1-f][1,2,4]triazin-2-yl)amino)phenyl)piperazine-1-carboxylate]
IC50: 0.51 nM

CC(C)(O)CC1(N2CCN(c3cc(C#N)cc(Nc4nc(NC5CC5)c5ncc(C#N)n5n4)c3Cl)CC2)COC1 [Example 536, 2-((2-chloro-5-cyano-3-(4-(3-(2-hydroxy-2-methylpropyl)oxetan-3-yl)piperazin-1-yl)phenyl)amino)-4-(cyclopropylamino)imidazo[2,1-f][1,2,4]triazine-7-carbonitrile]
IC50: 1.55 nM

N#Cc1cc(Nc2nc(NC3CC3)c3ncc(C#N)n3n2)c(Cl)c(N2CCN(C3(CCO)COC3)CC2)c1 [Example 537, 2-((2-chloro-5-cyano-3-(4-(3-(2-hydroxyethyl)oxetan-3-yl)piperazin-1-yl)phenyl)amino)-4-(cyclopropylamino)imidazo[2,1-f][1,2,4]triazine-7-carbonitrile]
IC50: 1.04 nM

N#Cc1cc(Nc2nc(NC3CC3)c3ncc(C#N)n3n2)c(Cl)c(N2CCN(C3(CO)COC3)CC2)c1 [Example 538, 2-((2-chloro-5-cyano-3-(4-(3-(hydroxymethyl)oxetan-3-yl)piperazin-1-yl)phenyl)amino)-4-(cyclopropylamino)imidazo[2,1-f][1,2,4]triazine-7-carbonitrile]
IC50: 2.1 nM

N#Cc1cc(Nc2nc(NC3CC3)c3ncc(C#N)n3n2)c(Cl)c(N2CCN(C(CO)CO)CC2)c1 [Example 539, 2-((2-chloro-5-cyano-3-(4-(1,3-dihydroxypropan-2-yl)piperazin-1-yl)phenyl)amino)-4-(cyclopropylamino)imidazo[2,1-f][1,2,4]triazine-7-carbonitrile]
IC50: 0.93 nM

CC(=O)NCC1(N2CCN(c3cc(C#N)cc(Nc4nc(NC5CC5)c5ncc(C#N)n5n4)c3Cl)CC2)COC1 [Example 540, N-((3-(4-(2-chloro-5-cyano-3-((7-cyano-4-(cyclopropylamino)imidazo[2,1-f][1,2,4]triazin-2-yl)amino)phenyl)piperazin-1-yl)oxetan-3-yl)methyl)acetamide]
IC50: 6.02 nM

CC(=O)N1CCN(C2CN(c3cc(C#N)cc(Nc4nc(NC5CC5)c5ncc(C#N)n5n4)c3Cl)C2)CC1 [Example 541, 2-((3-(3-(4-acetylpiperazin-1-yl)azetidin-1-yl)-2-chloro-5-cyanophenyl)amino)-4-(cyclopropylamino)imidazo[2,1-f][1,2,4]triazine-7-carbonitrile]
IC50: 0.57 nM

CCNc1nc(Nc2cc(C#N)cc(N3CCN(C4(C)COC4)CC3)c2Cl)nn2c(C#N)cnc12 [Example 542, 2-((2-chloro-5-cyano-3-(4-(3-methyloxetan-3-yl)piperazin-1-yl)phenyl)amino)-4-(ethylamino)imidazo[2,1-f][1,2,4]triazine-7-carbonitrile]
IC50: 1.35 nM

CCNc1nc(Nc2cc(C#N)cc(N3CCN(C4(CCO)COC4)CC3)c2Cl)nn2c(C#N)cnc12 [Example 543, 2-((2-chloro-5-cyano-3-(4-(3-(2-hydroxyethyl)oxetan-3-yl)piperazin-1-yl)phenyl)amino)-4-(ethylamino)imidazo[2,1-f][1,2,4]triazine-7-carbonitrile]
IC50: 1.1 nM

CCOC(=O)C1CCN(c2cc(C(F)F)cc(Nc3nc(NC4CC4)c4ncc(C#N)n4n3)c2Cl)CC1 [Example 544, ethyl 1-(2-chloro-3-((7-cyano-4-(cyclopropylamino)imidazo[2,1-f][1,2,4]triazin-2-yl)amino)-5-(difluoromethyl)phenyl)piperidine-4-carboxylate]
IC50: 28.2 nM

N#Cc1cnc2c(NC3CC3)nc(Nc3cc(C(F)F)cc(N4CCC(C(=O)O)CC4)c3Cl)nn12 [Example 545, 1-(2-chloro-3-((7-cyano-4-(cyclopropylamino)imidazo[2,1-f][1,2,4]triazin-2-yl)amino)-5-(difluoromethyl)phenyl)piperidine-4-carboxylic acid]
IC50: 1.55 nM

CN1CCN(C(=O)C2CCN(c3cc(C(F)F)cc(Nc4nc(NC5CC5)c5ncc(C#N)n5n4)c3Cl)CC2)CC1 [Example 546, 2-((2-chloro-5-(difluoromethyl)-3-(4-(4-methylpiperazine-1-carbonyl)piperidin-1-yl)phenyl)amino)-4-(cyclopropylamino)imidazo[2,1-f][1,2,4]triazine-7-carbonitrile]
IC50: 2.7 nM

N#Cc1cnc2c(NC3CC3)nc(Nc3cc(C(F)F)cc(N4CCC(C(=O)NC5COC5)CC4)c3Cl)nn12 [Example 547, 1-(2-chloro-3-((7-cyano-4-(cyclopropylamino)imidazo[2,1-f][1,2,4]triazin-2-yl)amino)-5-(difluoromethyl)phenyl)-N-(oxetan-3-yl)piperidine-4-carboxamide]
IC50: 2.3 nM

N#Cc1cc(Nc2nc(NC3CC3)c3ncc(C#N)n3n2)c(F)c(N2CCN(C3COC3)CC2)c1 [Example 548, 2-((5-cyano-2-fluoro-3-(4-(oxetan-3-yl)piperazin-1-yl)phenyl)amino)-4-(cyclopropylamino)imidazo[2,1-f][1,2,4]triazine-7-carbonitrile]
IC50: 0.8 nM

N#Cc1cc(Nc2nc(NC3CC3)c3ncc(C#N)n3n2)c(F)c(N2CCN(CC(O)CF)CC2)c1 (centres unmarked) [Example 549, 2-((5-cyano-2-fluoro-3-(4-(3-fluoro-2-hydroxypropyl)piperazin-1-yl)phenyl)amino)-4-(cyclopropylamino)imidazo[2,1-f][1,2,4]triazine-7-carbonitrile]
IC50: 1.25 nM

N#Cc1cc(Nc2nc(NC3CC3)c3ncc(C#N)n3n2)c(F)c(N2CCN(C3CNC3)CC2)c1 [Example 550, 2-((3-(4-(azetidin-3-yl)piperazin-1-yl)-5-cyano-2-fluorophenyl)amino)-4-(cyclopropylamino)imidazo[2,1-f][1,2,4]triazine-7-carbonitrile]
IC50: 0.83 nM

Reference: patent US9273057B2 (Bristol-Myers Squibb Company, priority 2012, dated 2016)
